≈ marks a conversion by molar mass, not a printed value. Where two headings read alike, the source gives them in different places.
What was measured:
Experiment in all cases: Antibacterial spectrum, MIC by agar dilution method
Format in all cases: cell-based
[1] = test system: Pseudomonas aeruginosa KY Z-444
Description: (§1) XK-62-2, 1-N-[L-(-)-α-hydroxy-γ-aminobutyryl] XK-62-2, Compounds (I-1), (I-2), (II-1) and (II-2) against various Gram-negative and Gram-positive bacteria determined by agar dilution method at pH 7.2.
(§2) ^8 produces 6N-acetyltransferase Type III

[2] = test system: Pseudomonas aeruginosa Z-445; details: Z445, pH 7.2, strain produces 6N-acetyltransferase Type III, read-out: Minimum Inhibitory Concentration
Description: as §1, §2

[3] = test system: Pseudomonas aeruginosa KY 8512; details: KY8512, pH 7.2, strain produces neomycinkanamycin phosphotransferase Type I and Type II, read-out: Minimum Inhibitory Concentration
Description: as §1
(§3) ^6 produces neomycinkanamycin phosphotransferase Type I and Type II

[4] = test system: Pseudomonas aeruginosa KY 8519; details: KY8519, agar dilution, pH 7.2, strain produces neomycinkanamycin phosphotransferase Type I and Type II, read-out: Minimum Inhibitory Concentration
Description: as §1, §3

Escherichia coli KY 8349 = details: KY8349, pH 7.2, strain produces neomycinkanamycin phosphotransferase Type I, read-out: Minimum Inhibitory Concentration
Description: as §1
(§4) ^3 produces neomycinkanamycin phosphotransferase Type I

Escherichia coli KY 8320 = details: KY8320, pH 7.2, strain produces neomycinkanamycin phosphotransferase Type I, read-out: Minimum Inhibitory Concentration
Description: as §1, §4

[5] = test system: Pseudomonas aeruginosa KY 8518; details: KY8518, pH 7.2, strain produces neomycinkanamycin phosphotransferase Type I, read-out: Minimum Inhibitory Concentration
Description: as §1, §4

Providencia sp. 164 = details: pH 7.2, strain produces gentamicin acetyltransferase Type II, read-out: Minimum Inhibitory Concentration
Description: as §1
^9 produces gentamicin acetyltransferase Type II

[6] = test system: Pseudomonas aeruginosa KY 8563
Description: as §1
^7 produces gentamicin acetyltransferase Type III

[7] = test system: Pseudomonas aeruginosa KY 8510
Description: as §1
(§5) ^1 produces kanamycin acetyltransferase

[8] = test system: Escherichia coli KY Z-343; details: KYZ343, pH 7.2, strain produces kanamycin acetyltransferase, read-out: Minimum Inhibitory Concentration
Description: as §1, §5

[9] = test system: Serratia marcescens POE 1065
Description: as §1, §5

[10] = test system: Pseudomonas aeruginosa KY 8516
Description: as §1, §5

[11] = test system: Staphylococcus aureus 209 P; details: pH 7.2, read-out: Minimum Inhibitory Concentration
Description: as §1

[12] = test system: Salmonella enteritidis G-14; details: Salmonella enterica, pH 7.2, read-out: Minimum Inhibitory Concentration
Description: as §1

[13] = test system: Klebsiella pneumoniae No. 8045; details: pH 7.2, read-out: Minimum Inhibitory Concentration
Description: as §1

[14] = test system: Staphylococcus aureus Smith; details: pH 7.2, read-out: Minimum Inhibitory Concentration
Description: as §1

[15] = test system: Pseudomonas aeruginosa BMH 1; details: BMH1, pH 7.2, read-out: Minimum Inhibitory Concentration
Description: as §1

[16] = test system: Pseudomonas aeruginosa NC-5
Description: as §1

[17] = test system: Pseudomonas aeruginosa BMH 10; details: BMH10, pH 7.2, read-out: Minimum Inhibitory Concentration
Description: as §1

Escherichia coli Juhl = details: pH 7.2, read-out: Minimum Inhibitory Concentration
Description: as §1

[18] = test system: Streptococcus faecalis ATCC 10541; details: Enterococcus faecalis, ATCC10541, pH 7.2, read-out: Minimum Inhibitory Concentration
Description: as §1

Proteus rettgeri KY 4288 = details: Providencia rettgeri, KY4288, pH 7.2, read-out: Minimum Inhibitory Concentration
Description: as §1

[19] = test system: Pseudomonas aeruginosa E-2
Description: as §1

Escherichia coli T-5 = test system: Escherichia coli T-5
Description: as §1

Proteus mirabilis 1287 = details: pH 7.2, read-out: Minimum Inhibitory Concentration
Description: as §1

Proteus morganii KY 4298 = details: Morganella morganii
Description: as §1

[20] = test system: Shigella sonnei ATCC 9290; details: ATCC9290, pH 7.2, read-out: Minimum Inhibitory Concentration
Description: as §1

Escherichia coli KY 8321 = details: KY8321, pH 7.2, strain produces gentamicin adenyltransferase and neomycinkanamycin phosphotransferase Type II, read-out: Minimum Inhibitory Concentration
Description: as §1
^5 produces gentamicin adenyltransferase and neomycinkanamycin
phosphotransferase Type II

[21] = test system: Pseudomonas aeruginosa KY 8511; details: KY8511, pH 7.2, strain produces gentamicin acetyltransferase Type I, read-out: Minimum Inhibitory Concentration
Description: as §1
(§6) ^2 produces gentamicin acetyltransferase Type I

Escherichia coli KY 8348 = details: KY8348, pH 7.2, strain produces gentamicin acetyltransferase Type I, read-out: Minimum Inhibitory Concentration
Description: as §1, §6

[22] = KYZ444, agar dilution, pH 7.2, strain produces 6N-acetyltransferase Type III, read-out: Minimum Inhibitory Concentration
[23] = NC5, pH 7.2, read-out: Minimum Inhibitory Concentration
[24] = E2, pH 7.2, read-out: Minimum Inhibitory Concentration
[25] = T5, agar dilution, pH 7.2, read-out: Minimum Inhibitory Concentration
[26] = KY8563, agar dilution, pH 7.2, strain produces gentamicin acetyltransferase Type III, read-out: Minimum Inhibitory Concentration
[27] = KY8510, agar dilution, pH 7.2, strain produces kanamycin acetyltransferase, read-out: Minimum Inhibitory Concentration
[28] = POE1065, agar dilution, pH 7.2, strain produces kanamycin acetyltransferase, read-out: Minimum Inhibitory Concentration
[29] = KY8516, agar dilution, pH 7.2, strain produces kanamycin acetyltransferase, read-out: Minimum Inhibitory Concentration
[30] = KY4298, agar dilution, pH 7.2, read-out: Minimum Inhibitory Concentration

| Structure (SMILES) | MIC [2] [µg/mL] | MIC [3] [µg/mL] | MIC [4] [µg/mL] | MIC (Escherichia coli KY 8349) [µg/mL] | MIC (Escherichia coli KY 8320) [µg/mL] | MIC [5] [µg/mL] | MIC (Providencia sp. 164) [µg/mL] | MIC [8] [µg/mL] | MIC [11] [µg/mL] | MIC [13] [µg/mL] | MIC [14] [µg/mL] | MIC [15] [µg/mL] | MIC [17] [µg/mL] | MIC [18] [µg/mL] | MIC (Proteus rettgeri KY 4288) [µg/mL] | MIC (Proteus mirabilis 1287) [µg/mL] | MIC [20] [µg/mL] | MIC (Escherichia coli KY 8321) [µg/mL] | MIC [21] [µg/mL] | MIC (Escherichia coli KY 8348) [µg/mL] | other results |
| --- | --- | --- | --- | --- | --- | --- | --- | --- | --- | --- | --- | --- | --- | --- | --- | --- | --- | --- | --- | --- | --- |
| CNCC1CCC(N)C(OC2C(N)CC(NC(=O)C(O)CN)C(OC3OCC(C)(O)C(N)C3O)C2O)O1 (racemic) [II-1, 3"-N-demethyl-1-N-(DL-α-hydroxy-β-aminopropionyl) XK-62-2] | 6.25 (≈ 11.6 µM) | 1.56 (≈ 2.91 µM) | 6.25 (≈ 11.6 µM) | 0.4 (≈ 0.745 µM) | 1.56 (≈ 2.91 µM) | 1.56 (≈ 2.91 µM) | 25 (≈ 46.6 µM) | 0.4 (≈ 0.745 µM) | 0.4 (≈ 0.745 µM) | 0.78 (≈ 1.45 µM) | 0.4 (≈ 0.745 µM) | 1.56 (≈ 2.91 µM) | 0.4 (≈ 0.745 µM) | 25 (≈ 46.6 µM) | 1.56 (≈ 2.91 µM) | 25 (≈ 46.6 µM) | 3.12 (≈ 5.81 µM) | 1.56 (≈ 2.91 µM) | 1.56 (≈ 2.91 µM) | 0.4 (≈ 0.745 µM) | MIC [1, 22]: 1.56 µg/mL (≈ 2.91 µM); MIC ([6]; KY8563, pH 7.2, read-out: Minimum Inhibitory Concentration): 3.12 µg/mL (≈ 5.81 µM); MIC ([7]; KY8510, pH 7.2, read-out: Minimum Inhibitory Concentration): 3.12 µg/mL (≈ 5.81 µM); MIC ([9]; POE1065, pH 7.2, read-out: Minimum Inhibitory Concentration): 3.12 µg/mL (≈ 5.81 µM); MIC ([10]; KY8516, pH 7.2, read-out: Minimum Inhibitory Concentration): 3.12 µg/mL (≈ 5.81 µM); MIC [12]: 3.12 µg/mL (≈ 5.81 µM); MIC [16, 23]: 3.12 µg/mL (≈ 5.81 µM); MIC (Escherichia coli Juhl): 3.12 µg/mL (≈ 5.81 µM); MIC [19, 24]: 3.12 µg/mL (≈ 5.81 µM); MIC (Escherichia coli T-5; [25]): 1.56 µg/mL (≈ 2.91 µM); MIC (Proteus morganii KY 4298; KY4298, pH 7.2, read-out: Minimum Inhibitory Concentration): 3.12 µg/mL (≈ 5.81 µM) |
| CNCC1CCC(N)C(OC2C(N)CC(NC(=O)C(O)CCN)C(OC3OCC(C)(O)C(NC)C3O)C2O)O1 (single isomer, unassigned) [1-N-[L-(-)-α-hydroxy-γ-aminobutyryl] XK-62-2, reference compound] | 6.25 (≈ 11.1 µM) | 1.56 (≈ 2.76 µM) | 6.25 (≈ 11.1 µM) | 0.1 (≈ 0.177 µM) | 0.2 (≈ 0.354 µM) | 1.56 (≈ 2.76 µM) | 6.25 (≈ 11.1 µM) | 0.1 (≈ 0.177 µM) | 0.4 (≈ 0.708 µM) | 0.2 (≈ 0.354 µM) | 0.1 (≈ 0.177 µM) | 0.78 (≈ 1.38 µM) | 0.4 (≈ 0.708 µM) | 6.25 (≈ 11.1 µM) | 0.78 (≈ 1.38 µM) | 12.5 (≈ 22.1 µM) | 0.78 (≈ 1.38 µM) | 0.2 (≈ 0.354 µM) | 1.56 (≈ 2.76 µM) | 0.1 (≈ 0.177 µM) | MIC [1, 22]: 1.56 µg/mL (≈ 2.76 µM); MIC [6, 26]: 6.25 µg/mL (≈ 11.1 µM); MIC [7, 27]: 3.12 µg/mL (≈ 5.53 µM); MIC [9, 28]: 0.78 µg/mL (≈ 1.38 µM); MIC [10, 29]: 3.12 µg/mL (≈ 5.53 µM); MIC ([12]; agar dilution): 3.12 µg/mL (≈ 5.53 µM); MIC ([16]; NC5, agar dilution, pH 7.2, read-out: Minimum Inhibitory Concentration): 3.12 µg/mL (≈ 5.53 µM); MIC (Escherichia coli Juhl; agar dilution): 0.4 µg/mL (≈ 0.708 µM); MIC ([19]; E2, agar dilution, pH 7.2, read-out: Minimum Inhibitory Concentration): 3.12 µg/mL (≈ 5.53 µM); MIC (Escherichia coli T-5; [25]): 0.4 µg/mL (≈ 0.708 µM); MIC (Proteus morganii KY 4298; [30]): 0.78 µg/mL (≈ 1.38 µM) |
| CC1(O)COC(OC2C(NC(=O)C(O)CCN)CC(N)C(OC3OC(CN)CCC3N)C2O)C(O)C1N (single isomer, unassigned) [Compound I-2, 3"-N, 6'-N-didemethyl-1-N-[L-(-)-α-hydroxy-γ-aminobutyryl] XK-62-2] | 6.25 (≈ 11.6 µM) | 0.78 (≈ 1.45 µM) | 3.12 (≈ 5.81 µM) | 0.4 (≈ 0.745 µM) | 0.78 (≈ 1.45 µM) | 0.78 (≈ 1.45 µM) | 6.25 (≈ 11.6 µM) | 0.2 (≈ 0.373 µM) | 0.2 (≈ 0.373 µM) | 0.78 (≈ 1.45 µM) | 0.2 (≈ 0.373 µM) | 0.78 (≈ 1.45 µM) | 0.4 (≈ 0.745 µM) | 12.5 (≈ 23.3 µM) | 0.78 (≈ 1.45 µM) | 12.5 (≈ 23.3 µM) | 1.56 (≈ 2.91 µM) | 0.78 (≈ 1.45 µM) | 0.78 (≈ 1.45 µM) | 0.4 (≈ 0.745 µM) | MIC ([1]; KYZ444, pH 7.2, read-out: Minimum Inhibitory Concentration): 1.56 µg/mL (≈ 2.91 µM); MIC [6, 26]: 3.12 µg/mL (≈ 5.81 µM); MIC [7, 27]: 12.5 µg/mL (≈ 23.3 µM); MIC [9, 28]: 25 µg/mL (≈ 46.6 µM); MIC [10, 29]: 25 µg/mL (≈ 46.6 µM); MIC ([12]; agar dilution): 12.5 µg/mL (≈ 23.3 µM); MIC [16, 23]: 1.56 µg/mL (≈ 2.91 µM); MIC (Escherichia coli Juhl): 1.56 µg/mL (≈ 2.91 µM); MIC [19, 24]: 1.56 µg/mL (≈ 2.91 µM); MIC (Escherichia coli T-5; T5, pH 7.2, read-out: Minimum Inhibitory Concentration): 1.56 µg/mL (≈ 2.91 µM); MIC (Proteus morganii KY 4298; [30]): 0.78 µg/mL (≈ 1.45 µM) |

Source: patent US4195171A, “Derivatives of an antibiotic XK-62-2 and process for the production thereof” (Abbott Laboratories, priority 1975, dated 1980)
